We go through 29 compounds from patent US20150250769A1, “METHODS AND COMPOSITIONS FOR INHIBITING RHO/MRTF-MEDIATED DISEASES AND CONDITIONS” (THE REGENTS OF THE UNIVERSITY OF MICHIGAN, priority 2014, published 2015).

“Also recorded” adds a separate entry of the source.

Data set [1] concerns Rho (MRTF/SRF-regulated gene transcription, SRE-Luciferase). The note with it: Evelyn et al. 2007; cited from earlier work.
Another data set has as its system peritoneal fibrosis. Particulars: Sakai et al. 2013; cited from earlier work.
The test system of another data set is human dermal fibroblasts. Put plainly: Myofibroblast differentiation / αSMA staining in dermal fibroblasts (TGFβ-induced normal, SSc). Format: cell-based. Particulars: for myofibroblast differentiation / phenotype (αSMA): in vitro, TGFβ-stimulated normal human dermal fibroblasts and SSc fibroblasts; for potency to reduce alpha-SMA staining, human primary dermal fibroblasts: 72-hour assay. As for the experimental part: B-D) Human dermal fibroblasts were treated with TGFβ (10 ng/ml) for 3 days with various concentrations of CCG-58150.
(§1) A & B) CCG-203971 inhibits LPA-induced COL1A2 and ACTA2 (αSMA) mRNA in NIH-3T3 cells.

Data set [2] has as its system COL1A2 and ACTA2 (αSMA) mRNA. Briefly: LPA-induced COL1A2 and ACTA2 mRNA in NIH-3T3 cells. It counts as cell-based.
Excerpt: as §1

The test system of the next data set is skin fibrosis. Briefly: Bleomycin skin injury (dermal fibrosis) model. It counts as in vivo. The note with it: mouse; 100 mg/kg. An excerpt: Mice are weighed once prior to study start. Dermal fibrosis is induced in Groups 2-5 by daily intradermal injections of bleomycin over 14 days. Group 1 will receive vehicle 1 (PBS) over the same days. Daily therapeutic dosing with either vehicle 2 or CCG-58150 by oral gavage coincide with the intradermal injection study days. Mice are anesthetized using isoflurane during intradermal injections. The back is shaved and the injection site ( 1 cm2) cleaned with three alternating passes of chlorhexidine and warm, sterile saline or water. The periphery of the injection site is circled using a […] marker as a visual aid. Bleomycin is dissolved in sterile PBS at a concentration of 1 mg/ml, sterile filtered, and frozen in aliquots appropriately sized for the daily injections prior to the start of the dosing period. 100 μl of bleomycin or PBS (Vehicle 1) is administered to anesthetized mice by intradermal injection using a 0.5 cc TB syringe with a 27 G needle. Following bleomycin or vehicle administration, test substance (CCG-58150) or vehicle 2 (20% DMSO/30% PEG/50% PBS) is administered by oral gavage at 10 μL/gram of body weight. […] Images are collected on an Evos microscope and skin thickness and intensity of fibrosis of two distinct images from each animal is analyzed using ImageJ. […]

The subject of another data set is cellular migration. Put plainly: Cellular migration. Format: cell-based. Particulars: FIG. 5.
A further data set can be described thus: Acute cellular toxicity. It counts as cell-based. The note with it: FIG. 2B; compared with CCG-1423.
Data set [3] in a line: In vivo tolerability (general statement). Particulars: compared with CCG-1423.
Data set [4] relates to Rho (MRTF/SRF-regulated gene transcription, SRE-Luciferase). Put plainly: SRE-Luciferase reporter, Rho inhibition. It counts as cell-based. As for the experimental part:
In the course of these studies, the rho transcription reporter method that uses the rho-specific SRE-Luciferase was developed. This transcriptional reporter method, described in detail therein, was used for screening a small chemical library for possible rho inhibitors (Evelyn et al., Mol Canc. Ther. 6:2249-60, 2007; herein incorporated by reference in its entirety). Additional inhibitors were identified as described below.
CCG-1423 was a cellular IC50 of ˜1 uM to inhibit SRE-Luciferase expression (Evelyn, C. R., Wade, S. M., Wang, Q., Wu, M., Iniguez-Lluhi, J. A., Merajver, S. D., and Neubig, R. R. 2007. CCG-1423: a small-molecule inhibitor of RhoA transcriptional signaling. Mol Cancer Ther 6:2249-2260). It has been used in many labs as a tool compound for blocking MRTF/SRF-regulated gene transcription (Sandbo et al., et al., 2011. Am J Physiol Lung Cell Mol Physiol 301:L656-666; Sandbo, et al., 2009. Am J Respir Cell Mol Biol 41:332-338; Evelyn, et al., 2007. Mol Cancer Ther 6:2249-2260; Sandbo et al., 2013. J Biol Chem 288:15466-15473; Prencipe et al., 2013. Prostate 73:743-753; Sakai et al., 2013. FASEB J 27:1830-1846; Buller et al., 2012. Glia 60:1906-1914; Chong et al., 2012. PLoS One 7:e40966; Jin et al., 2011. J Clin Invest 121:918-929; Mae et al., 2010. Biochem Biophys Res Commun 393:877-882; Evelyn et al., 2010. Bioorg Med Chem Lett 20:665-672; Lu et al., 2009. Curr Med Chem 16:1355-1365). CCG-1423 acts by preventing nuclear accumulation of MRTF (Evelyn et al, supra; Jin et al., supra).
A general note: Reporter assays use an easily measured gene product as a stand-in for the process of interest.

A short description of data set [5]: Stability in liver microsomes. Format: in vitro ADME. Background: Liver microsomes are a subcellular fraction often used to study metabolism.
Data set [6] can be described thus: Preliminary tolerability study in normal mice. It counts as in vivo. Particulars: 10 mg/kg i.p. daily for 2-weeks. As for the experimental part: The experiments shown in FIG. 4 are repeated CCG-58150 and derivatives thereof. A range of doses (0.1, 1, and 10 mg/kg) is used to increase the likelihood of finding a well-tolerated dose that is effective.
Another data set deals with CTGF mRNA. Briefly: CTGF mRNA by qRT-PCR in LPA-stimulated NIH3T3 cells. Format: cell-based. (Real-time PCR tracks product formation cycle by cycle.)

In the case of `CC(ONC(=O)c1cc(C(F)(F)F)cc(C(F)(F)F)c1)C(=O)Nc1ccc(Cl)cc1` (stereo not shown) [CCG-1423], in [1], the “reduction of SRF-mediated transcription versus ROCK inhibitors” value was “more effective than ROCK inhibitors”. The “activity in peritoneal fibrosis model” value in the data set with peritoneal fibrosis is listed as “in vivo activity”.

As to `O=C(Nc1ccc(Cl)cc1)C1CCCN(C(=O)c2cccc(-c3ccco3)c2)C1` (stereo not shown) [CCG-203971], in the data set with human dermal fibroblasts (FIG. 4C), the “potency relative to perfenidone” value is listed as 100 ×. The “myofibroblast differentiation / phenotype (αSMA)” value in the data set with human dermal fibroblasts is given as “reverses the myofibroblast phenotype; also recorded: Suppression of myofibroblast activation”. In [2], the “LPA-induced COL1A2 and ACTA2 (αSMA) mRNA” value is reported as “inhibits”. For the same compound, in the data set with skin fibrosis, the “fibrosis in bleomycin skin injury model” value is given as “prevented fibrosis; also recorded: very strongly significant effect; also recorded: prevents skin fibrosis”. The cellular migration entry with cellular migration was “inhibition of cellular migration”. In addition, the acute cellular toxicity entry in the data set “Acute cellular toxicity” is recorded as “less acute cellular toxicity; also recorded: reduced acute cellular toxicity”. In addition, the tolerability in vivo result in [3] is reported as “much better tolerated in vivo”. Further, in “In vivo pharmacokinetics” (in vivo), the hepatic clearance entry was “rapid hepatic clearance” and the “pharmacokinetics (overall)” value was “poor pharmacokinetics”. The oral absorption result in “In vivo pharmacokinetics” (in vivo, po) is reported as “low oral absorption”.

Regarding `c1ccc(-c2nnc(SCCC3OCCCO3)o2)cc1` [compound 20321], the IC50 (usually the point on the concentration scale where inhibition reaches its midpoint) in [4] is greater than 100 µM.

For the compound `Cc1cccc(-c2nnc(SCCC(=O)O)o2)c1` [compound 58146], the “potency in SRE-luciferase” value in data set [4] (FIG. 2C, listed as CCG-58146) was “nM IC50; also recorded: markedly higher potency”. Also, in the data set on cellular migration, the cellular migration result is “inhibition of cellular migration”.

Consider `O=C(O)CCSc1nnc(-c2ccc(Cl)cc2Cl)o1` [compound 58150], for which the figures for the “potency to reduce alpha-SMA staining, human primary dermal fibroblasts” value in the data set with human dermal fibroblasts (listed as CCG-58150) and with human dermal fibroblasts (listed as CCG-518150) were “fM-pM” and “fM-pM potency”, respectively. Also, the figures for the “myofibroblast differentiation / phenotype (αSMA)” value in the data set on human dermal fibroblasts and in the data set on human dermal fibroblasts (listed as CCG-58150) were “αSMA inhibition” and “blocks myofibroblast differentiation at pM concentrations”, respectively. Moreover, in the data set with human dermal fibroblasts (maximum effect), the “maximum suppression, inhibition of % αSMA positive cells” value is reported as 60%. In data set [5], the “stability in liver microsomes” value is “highly favorable stability”. Also, the IC50 in data set [4] is 0.004 µM; in the data set on CTGF mRNA (Mus musculus, FIG. 3, NIH3T3 cells stimulated with LPA, read-out: IC50, inhibition of expression of endogenous CTGF mRNA), 0.001 µM. Also, the cellular migration entry with cellular migration is “inhibition of cellular migration”. Besides, the tolerability entry in data set [6] is reported as “tolerated”. For the same compound, the “blood levels 24 hours after a single oral dose relative to in vitro IC50” value in the data set “In vivo pharmacokinetics” (24 hours, single oral dose) was “over 10 fold”. Moreover, the “pharmacokinetics (overall)” value in the data set “In vivo pharmacokinetics” (in vivo) is “very good in vivo pharmacokinetics”. In addition, in the data set with CTGF mRNA (24-hour assay), the “potency in a 24-hour assay in NIH 3T3 cells” value is “nM potency”.

Compound `COC(=O)CSc1nnc(-c2ccc(C)cc2)o1` [compound 105557] had an IC50 in data set [4] of 5.2 µM.

For the compound `COc1ccc(-c2nnc(SCCC(=O)O)n2C)cc1` [compound 107983], the IC50 in data set [4] was greater than 100 µM.

In [4], `O=C(O)CCSc1nc2ccccc2n1Cc1ccccc1` [compound 111085] showed an IC50 greater than 100 µM.

In the case of `Cc1ccc(-c2nnc(SCC(=O)O)o2)cc1` [compound 114898], the concentration for half-maximal inhibition (IC50) in [4] turned out to be 6.7 µM.

The compound `O=C(O)CCSc1nnc(-c2cccc(Br)c2)o1` [compound 123853] gave an IC50 in [4] of 6.4 µM.

On to `Cc1cccc(-c2nnc(SCC(=O)O)o2)c1` [compound 123860], for which the IC50 in data set [4] amounted to 43 µM.

In data set [4], `O=C(O)CCSc1nnc(-c2ccncc2)o1` [compound 123867] registered an IC50 greater than 100 µM.

Compound `O=C(O)CCSc1nnc(-c2cccnc2)o1` [compound 123869] displayed an IC50 in data set [4] of 87 µM.

As for `Cc1occc1-c1nnc(SCCC(=O)O)o1` [compound 123873], the IC50 in [4] is greater than 100 µM.

With `Cc1cccc(-c2nnc(SCC(N)=O)o2)c1` [compound 211912], in data set [4], the IC50 was greater than 100 µM.

With `CCCN(CCC)C(=O)CSc1nnc(-c2cccc(C)c2)o1` [compound 211913], the IC50 in [4] is greater than 100 µM.

For the compound `O=C(O)CCSc1nc(-c2ccccc2)cc(=O)[nH]1` [compound 211914], the IC50 in data set [4] is greater than 100 µM.

As for `O=C(O)CSc1nnc(-c2ccc(Cl)cc2Cl)o1` [compound 215027], the half-maximal inhibitory concentration (IC50) in data set [4] was greater than 100 µM.

In turn, `CCOC(=O)CSc1nnc(-c2ccc(Cl)cc2Cl)o1` [compound 215028] had an IC50 in data set [4] greater than 100 µM.

`CC(C)(C)NC(=O)CSc1nnc(-c2ccc(Cl)cc2Cl)o1` [compound 215029] registered an IC50 in [4] greater than 100 µM.

On to `COc1ccc(-c2nnc(SCCC(=O)O)[nH]2)cc1` [compound 215104], for which the IC50 in [4] is greater than 100 µM.

Regarding `COCCNC(=O)CCSc1nnc(-c2ccc(Cl)cc2Cl)o1` [compound 215160], the IC50 in data set [4] was greater than 100 µM.

`COc1cc(C)ccc1-c1nnc(SCCC(=O)O)o1` [compound 215201] had an IC50 in data set [4] of 0.023 µM.

Turning to `O=C(O)CCOc1nnc(-c2ccc(Cl)cc2Cl)s1` [compound 215240], inhibition in [4] was half-maximal at 24 µM (IC50).

In [4], `O=C(O)CCCc1nnc(-c2ccc(Cl)cc2Cl)o1` [compound 222620] came in with an IC50 greater than 100 µM.

For `COc1c(Cl)ccc(-c2nnc(SCCC(=O)O)o2)c1Cl` [compound 222623], in [4], 0.0086 µM corresponded to half-maximal inhibition (IC50).

In the case of `COc1cc(Cl)cc(Cl)c1-c1nnc(SCCC(=O)O)o1` [compound 222687], in data set [4], it took 10 µM to reach half-maximal inhibition (IC50).

As for `O=C(O)CCSc1nnc(-c2ccc(F)cc2Cl)o1` [compound 232002], inhibition in data set [4] was half-maximal at 0.025 µM (IC50).

Compound `O=C(O)CCCCSc1nnc(-c2ccc(Cl)cc2Cl)o1` [compound 232503, 5-((5-(2,4-dichlorophenyl)-1,3,4-oxadiazol-2-yl)thio)pentanoic acid] gave an IC50 in [4] of 0.003 µM.
